This note sets out measurements from patent publication US11091478B2 (Fochon Pharmaceuticals, Ltd., priority 2017, dated 2021).

One experiment concerns DOHH2 cells. As to the kind of experiment: Cell proliferation assay (MTS), DOHH2 cells, 120 h. The class given is cell-based. Conditions: Homo sapiens, DOHH-2, 120 h. An outline of the steps:
(§1)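 Proliferation was scored by MTS (2 h, then SDS stop, A490 with 650 nm reference) and IC50 derived. Compound ran at nine final concentrations from 1.5 to 10000 nM. DOHH2 were incubated 120 h and RS4;11 72 h, both plated at 5000 cells/well in RPMI-1640 plus 10% FBS.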

For another experiment, the system named is RS4;11 cells. As to the kind of experiment: Cell proliferation assay (MTS), RS4;11 cells, 72 h. The conditions noted are these: Homo sapiens, RS4-11, 72 h. The class given is cell-based. A digest of the protocol:
as §1

On to `CC1(C)CCC(CN2CCN(c3ccc(C(=O)NS(=O)(=O)c4cc5c(c([N+](=O)[O-])c4)N[C@H](CCN4CCC(N=S(C)(C)=O)CC4)CO5)c(Oc4cnc5[nH]ccc5c4)c3)CC2)=C(c2ccc(Cl)cc2)C1` [Example 2-131, (R)-2-((1H-pyrrolo[2,3-b]pyridin-5-yl)oxy)-4-(4-((4′-chloro-5,5-dimethyl-3,4,5,6-tetra-hydro-[1,1′-biphenyl]-2-yl)methyl)piperazin-1-yl)-N-((3-(2-(4-((dimethyl(oxo)-λ^6-sulfa-nylidene)amino)piperidin-1-yl)ethyl)-5-nitro-3,4-dihydro-2H-benzo[b][1,4]oxazin-7-yl)sulfonyl)benzamide], for which the values for the IC50 in the experiment with DOHH2 cells and in the experiment on RS4;11 cells were 39 nM and 9 nM, respectively.

As for `CC1(C)CCC(CN2CCN(c3ccc(C(=O)NS(=O)(=O)c4cc5c(c([N+](=O)[O-])c4)N[C@H](C4CCOCC4)CO5)c(Oc4cnc5[nH]ccc5c4)c3)CC2)=C(c2ccc(Cl)cc2)C1` [Example 2-186, (R)-2-((1H-pyrrolo[2,3-b]pyridin-5-yl)oxy)-4-(4-((4′-chloro-5,5-dimethyl-3,4,5,6-tetra-hydro-[1,1′-biphenyl]-2-yl)methyl)piperazin-1-yl)-N-((5-nitro-3-(tetrahydro-2H-pyran-4-yl)-3,4-dihydro-2H-benzo[b][1,4]oxazin-7-yl)sulfonyl)benzamide], the IC50 in the experiment on DOHH2 cells was 13 nM; in the experiment with RS4;11 cells, 1 nM.

Regarding `CC1(C)CCC(CN2CCN(c3ccc(C(=O)NS(=O)(=O)c4cc5c(c([N+](=O)[O-])c4)N[C@@H](CN4CCOCC4)C5)c(Oc4cnc5[nH]ccc5c4)c3)CC2)=C(c2ccc(Cl)cc2)C1` [Example 1-8, (R)-2-((1H-pyrrolo[2,3-b]pyridin-5-yl)oxy)-4-(4-((4′-chloro-5,5-dimethyl-3,4,5,6-tetra-hydro-[1,1′-biphenyl]-2-yl)methyl)piperazin-1-yl)-N-((2-(morpholinomethyl)-7-nitro-indolin-5-yl)sulfonyl)benzamide], the IC50 with DOHH2 cells stood at 27 nM; with RS4;11 cells, 1 nM.

Take `CC1(C)CCC(CN2CCN(c3ccc(C(=O)NS(=O)(=O)c4cc5c(c([N+](=O)[O-])c4)N[C@H](c4ccc(F)cc4)CO5)c(Oc4cnc5[nH]ccc5c4)c3)CC2)=C(c2ccc(Cl)cc2)C1` [Example 2-166, (R)-2-((1H-pyrrolo[2,3-b]pyridin-5-yl)oxy)-4-(4-((4′-chloro-5,5-dimethyl-3,4,5,6-tetra-hydro-[1,1′-biphenyl]-2-yl)methyl)piperazin-1-yl)-N-((3-(4-fluorophenyl)-5-nitro-3,4-dihydro-2H-benzo[b][1,4]oxazin-7-yl)sulfo-nyl)benzamide]: the figures for the IC50 with DOHH2 cells and in the experiment on RS4;11 cells were 300 nM and 82 nM, respectively.

Take `CC1(C)CCC(CN2CCN(c3ccc(C(=O)NS(=O)(=O)c4cc5c(c([N+](=O)[O-])c4)N[C@@H](C4CC4)CO5)c(Oc4cnc5[nH]ccc5c4)c3)CC2)=C(c2ccc(Cl)cc2)C1` [Example 2-114, (S)-2-((1H-pyrrolo[2,3-b]pyridin-5-yl)oxy)-4-(4-((4′-chloro-5,5-dimethyl-3,4,5,6-tetra-hydro-[1,1′-biphenyl]-2-yl)methyl)piperazin-1-yl)-N-((3-cyclopropyl-5-nitro-3,4-di-hydro-2H-benzo[b][1,4]oxazin-7-yl)sulfonyl)benzamide]: the IC50 was determined as 48 nM with DOHH2 cells and 1 nM with RS4;11 cells.

For `COc1ccc(C[C@H]2COc3cc(S(=O)(=O)NC(=O)c4ccc(N5CCN(CC6=C(c7ccc(Cl)cc7)CC(C)(C)CC6)CC5)cc4Oc4cnc5[nH]ccc5c4)cc([N+](=O)[O-])c3N2)nc1` [Example 2-162, (S)-2-((1H-pyrrolo[2,3-b]pyridin-5-yl)oxy)-4-(4-((4′-chloro-5,5-dimethyl-3,4,5,6-tetra-hydro-[1,1′-biphenyl]-2-yl)methyl)piperazin-1-yl)-N-((3-((5-methoxypyridin-2-yl)meth-yl)-5-nitro-3,4-dihydro-2H-benzo[b][1,4]oxain-7-yl)sulfonyl)benzamide], the values for the IC50 in the experiment with DOHH2 cells and in the experiment on RS4;11 cells were 325 nM and 43 nM, respectively.

In the case of `CC1(C)CCC(c2ccc(Cl)cc2)=C(CN2CCN(c3ccc(C(=O)NS(=O)(=O)c4cc5c(c([N+](=O)[O-])c4)N[C@@H](Cc4ccccn4)CO5)c(Oc4cnc5[nH]ccc5c4)c3)CC2)C1` [Example 2-211, (S)-2-((1H-pyrrolo[2,3-b]pyridin-5-yl)oxy)-4-(4-((4′-chloro-4,4-dimethyl-3,4,5,6-tetra-hydro-[1,1′-biphenyl]-2-yl)methyl)piperazin-1-yl)-N-((5-nitro-3-(pyridin-2-ylmethyl)-3,4-dihydro-2H-benzo[b][1,4]oxazin-7-yl)sulfonyl)benzamide], the IC50 came to 92 nM in the experiment with DOHH2 cells and 35 nM in the experiment on RS4;11 cells.

Turning to `CC(=O)NC[C@H]1COc2cc(S(=O)(=O)NC(=O)c3ccc(N4CCN(CC5=C(c6ccc(Cl)cc6)CC(C)(C)CC5)CC4)cc3Oc3cnc4[nH]ccc4c3)cc([N+](=O)[O-])c2N1` [Example 2-53, (S)-2-((1H-pyrrolo[2,3-b]pyridin-5-yl)oxy)-N-((3-(acetamidomethyl)-5-nitro-3,4-dihydro-2H-benzo[b][1,4]oxazin-7-yl)sulfonyl)-4-(4-((4′-chloro-5,5-dimethyl-3,4,5,6-tetra-hydro-[1,1′-biphenyl]-2-yl)methyl)piperazin-1-yl)benzamide], the IC50 in the experiment on DOHH2 cells was found to be 543 nM; with RS4;11 cells it was 53 nM.

As to `CC[C@H]1COc2cc(S(=O)(=O)NC(=O)c3ccc(N4CCN(CC5=C(c6ccc(Cl)cc6)CC(C)(C)CC5)CC4)cc3Oc3cnc4[nH]ccc4c3)cc([N+](=O)[O-])c2N1` [Example 2-112], the IC50 came to 15 nM in the experiment on DOHH2 cells and 11 nM in the experiment on RS4;11 cells.

Consider `COc1ccc([C@@H]2COc3cc(S(=O)(=O)NC(=O)c4ccc(N5CCN(CC6=C(c7ccc(Cl)cc7)CC(C)(C)CC6)CC5)cc4Oc4cnc5[nH]ccc5c4)cc([N+](=O)[O-])c3N2)nc1` [Example 2-179, (R)-2-((1H-pyrrolo[2,3-b]pyridin-5-yl)oxy)-4-(4-((4′-chloro-5,5-dimethyl-3,4,5,6-tetra-hydro-[1,1′-biphenyl]-2-yl)methyl)pieprazin-1-yl)-N-((3-(5-methoxypyridin-2-yl)-5-ni-tro-3,4-dihydro-2H-benzo[b][1,4]oxazin-7-yl)sulfonyl)benzamide], for which the IC50 in the experiment with DOHH2 cells is 380 nM; with RS4;11 cells, 18 nM.

As for `COC(=O)N1CCC(C[C@H]2COc3cc(S(=O)(=O)NC(=O)c4ccc(N5CCN(CC6=C(c7ccc(Cl)cc7)CC(C)(C)CC6)CC5)cc4Oc4cnc5[nH]ccc5c4)cc([N+](=O)[O-])c3N2)CC1` [Example 2-195, methyl (S)-4-((7-(N-(2-((1H-pyrrolo[2,3-b]pyridin-5-yl)oxy)-4-(4-((4′-chloro-5,5-dimethyl-3,4,5,6-tetrahydro-[1,1′-biphenyl]-2-yl)methyl)piperazin-1-yl)benzoyl)sulfamoyl)-5-nitro-3,4-dihydro-2H-benzo[b][1,4]oxazin-3-yl)methyl)piperidine-1-carboxylate], the IC50 is 138 nM in the experiment with DOHH2 cells and 4 nM with RS4;11 cells.

As for `C[C@@H]1CN(C[C@@H]2COc3cc(S(=O)(=O)NC(=O)c4ccc(N5CCN(CC6=C(c7ccc(Cl)cc7)CC(C)(C)CC6)CC5)cc4Oc4cnc5[nH]ccc5c4)cc([N+](=O)[O-])c3N2)CCO1` [Example 2-23, 2-((1H-pyrrolo[2,3-b]pyridin-5-yl)oxy)-4-(4-((4′-chloro-5,5-dimethyl-3,4,5,6-tetra-hydro-[1,1′-biphenyl]-2-yl)methyl)piperazin-1-yl)-N-(((R)-3-(((R)-2-methylmorpholino)methyl)-5-nitro-3,4-dihydro-2H-benzo[b][1,4]oxazin-7-yl)sulfonyl)benzamide], the values for the IC50 in the experiment on DOHH2 cells and in the experiment on RS4;11 cells were 33 nM and 7 nM, respectively.

Turning to `C[C@H]1CN(C[C@H]2COc3cc(S(=O)(=O)NC(=O)c4ccc(N5CCN(CC6=C(c7ccc(Cl)cc7)CC(C)(C)CC6)CC5)cc4Oc4cnc5[nH]ccc5c4)cc([N+](=O)[O-])c3N2)CCN1C1COC1` [Example 2-30], the results for the IC50 in the experiment on DOHH2 cells and in the experiment with RS4;11 cells were 8 nM and 1 nM, respectively.

On to `CN1CCC([C@H]2COc3cc(S(=O)(=O)NC(=O)c4ccc(N5CCN(CC6=C(c7ccc(Cl)cc7)CC(C)(C)CC6)CC5)cc4Oc4cnc5[nH]ccc5c4)cc([N+](=O)[O-])c3N2)CC1` [Example 2-233, (S)-2-((1H-pyrrolo[2,3-b]pyridin-5-yl)oxy)-4-(4-((4′-chloro-5,5-dimethyl-3,4,5,6-tetra-hydro-[1,1′-biphenyl]-2-yl)methyl)piperazin-1-yl)-N-((3-(1-methylpiperidin-4-yl)-5-ni-tro-3,4-dihydro-2H-benzo[b][1,4]oxazin-7-yl)sulfonyl)benzamide], for which the IC50 with DOHH2 cells amounted to 13 nM; in the experiment with RS4;11 cells, 17 nM.

Regarding `COC(=O)C[C@@H]1Cc2cc(S(=O)(=O)NC(=O)c3ccc(N4CCN(CC5=C(c6ccc(Cl)cc6)CC(C)(C)CC5)CC4)cc3Oc3cnc4[nH]ccc4c3)cc([N+](=O)[O-])c2N1` [Example 1-22, methyl (S)-2-(5-(N-(2-((1H-pyrrolo[2,3-b]pyridin-5-yl)oxy)-4-(4-((4′-chloro-5,5-dimethyl-3,4,5,6-tetrahydro-[1,1′-biphenyl]-2-yl)methyl)piperazin-1-yl)benzoyl)sulfamoyl)-7-nitro-indolin-2-yl)acetate], the IC50 amounted to 175 nM in the experiment with DOHH2 cells and 47 nM with RS4;11 cells.

For the compound `CN(C)CC[C@H]1Cc2cc(S(=O)(=O)NC(=O)c3ccc(N4CCN(CC5=C(c6ccc(Cl)cc6)CC(C)(C)CC5)CC4)cc3Oc3cnc4[nH]ccc4c3)cc([N+](=O)[O-])c2N1` [Example 1-18, (R)-2-((1H-pyrrolo[2,3-b]pyridin-5-yl)oxy)-4-(4-((4′-chloro-5,5-dimethyl-3,4,5,6-tetra-hydro-[1,1′-biphenyl]-2-yl)methyl)piperazin-1-yl)-N-((2-(2-(dimethylamino)ethyl)-7-nitroindolin-5-yl)sulfonyl)benzamide], the figures for the IC50 with DOHH2 cells and with RS4;11 cells were 5 nM and 18 nM, respectively.

The IC50 is the concentration that gives 50% inhibition.
